From ChEMBL document CHEMBL1150946, “Antipruritic dinaphthofuran-7,12-dione derivatives from the pericarp of Impatiens balsamina” (J Nat Prod, 1998)
Active and inactive are the calls of the source. No cut-off for these calls is given here.

System: Mus musculus
Experiment: Antipruritic activity in ddY mouse assessed as inhibition of compound 48/80-induced nose scratching behavior at 10 mg/kg, po for 20 mins preincubated 24 hrs before compound 48/80 challenge
Type: functional, organism-based
Design: dose 10 mg/kg

Row | Compound | Activity
1 | COc1c(O[C@@H]2O[C@H](CO)[C@@H](O)[C@H](O)[C@H]2O)c2ccccc2c2oc3c(c12)C(=O)c1ccccc1C3=O | Active
2 | COC1=CC(=O)c2ccccc2C1=O | Active
